According to patent publication US8628771B2, “CA IX-specific inhibitors” (Institute of Virology Slovak Academy of Sciences, priority 2002, dated 2014):
Several values for one entry are separate records, joined by “and”; a condition that tells them apart may be missing. Identical values can stand only once. Like-named read-outs stand apart in the source and are kept apart here.

Key:
hCA IX = hCA IX (Homo sapiens, UniProt Q16790); assay: CA CO2 hydrase activity assay, tumor-associated isozyme hCA IX
Experimental: An SX.18MV-R Applied Photophysics stopped-flow instrument has been used for assaying the CA CO2 hydration activity assays [44]. […] Inhibitor and enzyme solutions were preincubated together for 10 min at room temperature prior to assay, in order to allow for the formation of the E-I complex.

bCA IV = biological target: T1, bCA IV (Bos taurus, UniProt Q95323); assay: CA esterase activity assay, isozyme bCA IV; type: biochemical, bovine
T1 construct: CA IV was isolated from bovine lung microsomes as described by Maren et al; from tissue; host or cells: bovine lung microsomes
T1 sequence (Q95323 19-284): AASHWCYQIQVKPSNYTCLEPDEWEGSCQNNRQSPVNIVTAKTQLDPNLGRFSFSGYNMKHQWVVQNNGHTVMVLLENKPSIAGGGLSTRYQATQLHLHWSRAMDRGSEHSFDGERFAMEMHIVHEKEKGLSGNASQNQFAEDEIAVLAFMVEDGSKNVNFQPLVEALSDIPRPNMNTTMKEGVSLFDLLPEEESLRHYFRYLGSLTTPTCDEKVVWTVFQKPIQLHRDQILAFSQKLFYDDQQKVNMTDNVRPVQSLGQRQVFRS

hCA I = biological target: T2, hCA I (Homo sapiens, UniProt P00915); assay: CA esterase activity assay, isozyme hCA I; type: biochemical
T2 construct: made in house; host or cells: Escherichia coli BL21 (DE3)
T2 sequence (P00915 whole entry): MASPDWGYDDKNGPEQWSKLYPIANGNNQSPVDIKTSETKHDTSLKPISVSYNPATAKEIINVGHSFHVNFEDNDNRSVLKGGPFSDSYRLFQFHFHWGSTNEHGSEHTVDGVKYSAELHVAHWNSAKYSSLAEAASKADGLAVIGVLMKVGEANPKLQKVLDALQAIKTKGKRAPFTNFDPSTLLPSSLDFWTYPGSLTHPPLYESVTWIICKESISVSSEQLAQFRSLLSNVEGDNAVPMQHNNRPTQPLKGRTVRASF

hCA II = biological target: T3, hCA II (Homo sapiens, UniProt P00918); assay: CA esterase activity assay, isozyme hCA II; type: biochemical
T3 construct: made in house; host or cells: Escherichia coli BL21 (DE3)

[1] = KI against CA IX, text discussion of Tables 1-3
[2] = read-out: KI hCA IX, Table 3, catalytic domain of the human, cloned isozyme, CO2 hydrase assay method
[3] = Table 3, from bovine lung microsomes, esterase assay method, read-out: KI bCA IV
[4] = Table 3, human (cloned) isozymes, esterase assay method, read-out: KI hCA I
[5] = Table 3, human (cloned) isozymes, esterase assay method, read-out: KI hCA II
[6] = Table 2, from bovine lung microsomes, read-out: KI bCA IV
[7] = Table 2, human (cloned) isozymes, read-out: KI hCA I
[8] = Table 2, human (cloned) isozymes, read-out: KI hCA II
[9] = read-out: KI hCA IX, Table 2, catalytic domain of the human, cloned isozyme
[10] = read-out: KI hCA IX, Table 1, human cloned isozyme, CO2 hydrase assay method
[11] = Table 1, isolated from bovine lung microsomes, esterase assay method, read-out: KI bCA IV
[12] = Table 1, human cloned isozymes, esterase assay method, read-out: KI hAC I

| SMILES | Ki (hCA I; [7]) | Ki (hCA II; [8]) | Ki (hCA IX; [9]) | Ki (bCA IV; [11]) | other results |
| --- | --- | --- | --- | --- | --- |
| Cc1c(-c2ccccc2)cc(C)[n+](-c2ccc(S(=O)(=O)Nc3nnc(S(N)(=O)=O)s3)cc2)c1C [Compound 90] | – | – | – | – | Ki (hCA IX; [1]): 12 to 35 nM; Ki (hCA IX; [2]): 15 nM; Ki (bCA IV; [3]): 5.2 nM; Ki (bCA IV; Table 3, read-out: KI against CA IV): 5.2 to 10.3 nM; Ki (hCA I; [4]): 3 nM; Ki (hCA II; [5]): 1.24 nM |
| CCCCc1cc(-c2ccccc2)cc(-c2ccccc2)[n+]1-c1ccc(S(N)(=O)=O)cc1 [Compound 36] | 305000 nM | 620 nM | – | – | Ki (bCA IV; [6]): 2160 nM |
| CC(C)c1cc(-c2ccccc2)cc(C(C)C)[n+]1-c1ccc(S(=O)(=O)Nc2nnc(S(N)(=O)=O)s2)cc1 [Compound 79, 1-N-[5-Sulfamoyl-1,3,4-thiadiazol-2-yl-(aminosulfonyl-4-phenyl)]-2,6-di-isopropyl-4-phenylpyridinium perchlorate] | – | – | – | – | Ki (hCA IX; [1]): 12 to 35 nM; Ki (hCA IX; [2]): 30 nM; Ki (bCA IV; [3]): 4.1 nM; Ki (hCA I; [4]): 5 nM; Ki (hCA II; [5]): 1.61 nM; Ki (hCA II; Tables 1 and 3, read-out: KI against CA II): 0.2 to 1.61 nM |
| CCc1cc(-c2ccccc2)cc(-c2ccccc2)[n+]1Cc1ccc(S(N)(=O)=O)cc1.[O-][Cl+3]([O-])([O-])[O-] [Compound 47] | 42000 nM | 314 nM | 79 nM | – | Ki (bCA IV; [6]): 983 nM |
| Nc1nccc(Nc2ccc(S(N)(=O)=O)cc2)n1 [Compound 20] | – | – | – | 154 nM | Ki (hCA IX; read-out: KI against CA IX, text discussion of Tables 1-3): 16 to 32 nM; Ki (hCA IX; [10]): 16 nM |
| NS(=O)(=O)c1cccc2ccccc12 [Compound 23] | – | – | – | 438 nM | Ki (hCA IX; [10]): 30 nM |
| CCN[C@H]1CN(CCCOC)S(=O)(=O)c2sc(S(N)(=O)=O)cc21 [BRZ, brinzolamide, reference compound] | – | – | – | 45 nM | – |
| CC(C)c1cc(-c2ccccc2)cc(C(C)C)[n+]1-c1ccc(S(N)(=O)=O)cc1 [Compound 31] | 5000 nM | – | 160 nM | – | Ki (bCA IV; [6]): 90 nM |
| NCc1ccc(S(N)(=O)=O)cc1 [Compound 5, homosulfanilamide] | – | – | – | – | Ki (hCA IX; read-out: KI hCA IX): 103 nM |
| Cc1cc(-c2ccccc2)cc(C)[n+]1Cc1ccc(S(N)(=O)=O)cc1 [Compound 42] | 4000 nM | – | 26 nM | – | Ki (bCA IV; [6]): 70 nM |
| Nc1ccccc1S(N)(=O)=O [Compound 1] | – | – | – | 1310 nM | Ki (hCA IX; [10]): 33 nM |
| Nc1ccc(S(N)(=O)=O)cc1I [Compound 10] | – | – | – | 125 nM | Ki (hCA IX; [10]): 285 nM; Ki (hCA I; [12]): 6000 nM |
| CC(C)c1cc(-c2ccccc2)cc(C(C)C)[n+]1Cc1ccc(S(N)(=O)=O)cc1 [Compound 45] | 12000 nM | 61 nM | 100 nM | – | – |
| Nc1ccc(S(N)(=O)=O)cc1Br [Compound 9] | – | – | – | 66 nM | – |
| Nc1cc(C(F)(F)F)c(S(N)(=O)=O)cc1S(N)(=O)=O [Compound 11] | – | – | – | 154 nM | – |
| Nc1ccc(S(=O)(=O)Nc2ccccc2S(N)(=O)=O)cc1 [Compound 17] | – | – | – | 144 nM | Ki (hCA I; [12]): 185 nM |
| NS(=O)(=O)c1ccc(CO)cc1 [Compound 24] | – | – | – | – | Ki (hCA IX; [10]): 21 nM |

| SMILES | Ki (hCA I; [7]) | Ki (hCA II; [8]) | Ki (hCA IX; [9]) | Ki (bCA IV; [11]) | other results |
| --- | --- | --- | --- | --- | --- |
| NS(=O)(=O)c1ccc(-[n+]2c(-c3ccccc3)cc(-c3ccccc3)cc2-c2ccccc2)cc1 [Compound 37] | 290000 nM | – | – | – | Ki (bCA IV; [6]): 2500 nM; Ki (hCA II; read-out: KI hCA II): 510 nM |
| NNc1ccc(S(N)(=O)=O)cc1 [Compound 4, 4-hydrazino-benzenesulfonamide] | – | – | – | 3220 nM | Ki (hCA I; [12]): 78500 nM |
| Nc1ccc(S(N)(=O)=O)cc1F [Compound 7] | – | – | – | 180 nM | Ki (hCA IX; [10]): 245 nM |
| CC(C)c1cc(-c2ccccc2)cc(-c2ccccc2)[n+]1-c1ccc(S(N)(=O)=O)cc1 [Compound 35] | 125000 nM | 440 nM | – | – | Ki (bCA IV; [6]): 2100 nM |
| Cn1nc(S(N)(=O)=O)sc1=N [Compound 14] | – | – | – | – | Ki (hCA IX; [10]): 30 nM |
| Nc1ccc(S(=O)(=O)NCc2ccc(S(N)(=O)=O)cc2)cc1 [Compound 18] | – | – | – | 72 nM | – |
| NS(=O)(=O)c1ccc(C(=O)O)cc1 [Compound 26] | – | – | – | 86 nM | Ki (hCA IX; [10]): 26 nM |
| NS(=O)(=O)c1ccc(CCO)cc1 [Compound 25] | – | – | – | 450 nM | Ki (hCA IX; [10]): 22 nM |
| Nc1ccc(S(=O)(=O)Nc2ccc(S(N)(=O)=O)cc2)cc1 [Compound 16] | – | – | – | 129 nM | Ki (hCA IX; [10]): 34 nM |
| Cc1cc(-c2ccccc2)[n+](-c2ccc(S(=O)(=O)Nc3nnc(S(N)(=O)=O)s3)cc2)c(-c2ccccc2)c1 [Compound 86] | – | – | – | – | Ki (hCA IX): 12 to 35 nM; Ki (hCA IX; [2]): 12 nM; Ki (hCA II; [5]): 4.78 nM; Ki (hCA II; read-out: KI against CA II): 3.13 to 5.96 nM |
| CCCc1cc(-c2ccccc2)cc(-c2ccccc2)[n+]1-c1ccc(S(N)(=O)=O)cc1 [Compound 34] | 140000 nM | 580 nM | – | – | Ki (bCA IV; [6]): 1480 nM |
| Nc1ccc(S(=O)(=O)NCCc2ccc(S(N)(=O)=O)cc2)cc1 [Compound 19] | – | – | – | 72 nM | Ki (hCA IX; [10]): 24 nM |
| Nc1ccc(S(N)(=O)=O)cc1 [Compound 3, sulfanilamide] | – | – | – | – | Ki (bCA IV; read-out: KI bCA IV): 3000 nM |
| CC(C)c1cc(-c2ccccc2)cc(-c2ccccc2)[n+]1CCc1ccc(S(N)(=O)=O)cc1 [Compound 65] | – | 350 nM | 78 nM | – | Ki (hCA I; read-out: KI hCA I): 94000 nM |
| NS(=O)(=O)c1cccc2cccnc12 [Compound 22] | – | – | – | 415 nM | Ki (hCA IX; [10]): 32 nM |
| Nc1ccc(S(N)(=O)=O)cc1Cl [Compound 8] | – | – | – | – | Ki (hCA IX; [10]): 264 nM |
| NS(=O)(=O)c1ccc(S(=O)(=O)Nc2cccc3c(Cl)c[nH]c23)cc1 [indisulam, reference compound] | – | – | – | – | Ki (bCA IV; [6]): 65 nM; Ki (bCA IV; [3]): 65 nM |

More lines, main results first:

| Ki (hCA I; [7]) | Ki (hCA II; [8]) | Ki (hCA IX; [9]) | SMILES | Ki (bCA IV; [11]) | other results |
| --- | --- | --- | --- | --- | --- |
| 3000 nM | 20 nM | 49 nM | Cc1cc(C(C)C)[n+](CCc2ccc(S(N)(=O)=O)cc2)c(C(C)C)c1 [Compound 57] | – | Ki (bCA IV; [6]): 70 nM |
| 2000 nM | 10 nM | 8 nM | Cc1cc(C)[n+](CCc2ccc(S(N)(=O)=O)cc2)c(C)c1C [Compound 70] | – | Ki (hCA IX; [1]): 6 to 54 nM and < 10 nM; Ki (bCA IV; [6]): 21 nM |
| 112000 nM | 270 nM | 84 nM | CCCc1cc(-c2ccccc2)cc(-c2ccccc2)[n+]1CCc1ccc(S(N)(=O)=O)cc1 [Compound 64] | – | Ki (bCA IV; read-out: KI bCA IV): 1060 nM |
| – | – | 14 nM | Cc1cc(C)[n+](CCc2ccc(S(N)(=O)=O)cc2)c(C)c1.[O-][Cl+3]([O-])([O-])[O-] [Compound 55] | – | – |
| 110000 nM | 321 nM | – | CC(C)(C)c1cc(-c2ccccc2)cc(-c2ccccc2)[n+]1Cc1ccc(S(N)(=O)=O)cc1 [Compound 51] | – | Ki (bCA IV; read-out: KI bCA IV): 1070 nM |
| 92000 nM | 275 nM | – | CC(C)(C)c1cc(-c2ccccc2)cc(-c2ccccc2)[n+]1CCc1ccc(S(N)(=O)=O)cc1 [Compound 67] | – | Ki (bCA IV; [6]): 1000 nM |
| 6000 nM | 21 nM | 89 nM | CC(C)c1cc(-c2ccccc2)cc(C(C)C)[n+]1CCc1ccc(S(N)(=O)=O)cc1 [Compound 61] | – | Ki (hCA IX): 64 to 135 nM |
| 112000 nM | 370 nM | 80 nM | CC(C)c1cc(-c2ccccc2)cc(-c2ccccc2)[n+]1Cc1ccc(S(N)(=O)=O)cc1 [Compound 49] | – | – |
| 40000 nM | 220 nM | 70 nM | CCc1cc(-c2ccccc2)cc(-c2ccccc2)[n+]1CCc1ccc(S(N)(=O)=O)cc1 [Compound 63] | – | – |
| 18000 nM | 103 nM | 37 nM | Cc1cc(-c2ccccc2)cc(-c2ccccc2)[n+]1CCc1ccc(S(N)(=O)=O)cc1 [Compound 62] | – | Ki (hCA IX): 6 to 54 nM |
| 270000 nM | 419 nM | 95 nM | NS(=O)(=O)c1ccc(CC[n+]2c(-c3ccccc3)cc(-c3ccccc3)cc2-c2ccccc2)cc1 [Compound 68] | – | Ki (hCA IX): 64 to 135 nM |
